Patent US20070203215A1, “Methods & Compositions For Enhancing Pharmaceutical Treatments” (Taiji Biomedical, Inc., priority 1999, published 2007)
Where two headings read alike, the source gives them in different places.

Key:
[1] = system: MDA/LCC6 human breast carcinoma xenografts; assay: In vivo antitumor efficacy, non-P-gp-expressing MDA/LCC6 xenografts; design: species or system SCID mice; settings: non-P-gp expressing tumor cells, FIG. 2
Procedure: Anti-tumor efficacy experiments with orthotopic MDA/LCC6 and MDA/LCC6^MDR1 tumors were conducted in female SCID/RAG2 mice. Ascites propagated cells (2×10^6 in 50 μl) were injected into mammary fat pads bilaterally on day 0 before randomization into groups of 5 mice per group. Paclitaxel (12 mg/kg/dose) was administered QD i.v. (tail vein) in 200 μl saline/Cremophor/ethanol (8/1/1 by volume) on days 5, 12, 19, and 26. The compound of Formula 2-free base (30 mg/kg/dose) was administered BID p.o. by gavage in 100 μl PEG 400/Tween 20 (9/1 by volume) on days 4-6, 11-13, 18-20, and 25-27. Mean body weights were recorded at least every other day. Tumor weight was monitored approximately every other day by caliper measurements and calculated according to the formula (Tumor weight =(length×width^2)÷2). This conversion formula was verified by comparing the calculation derived tumor weights to excised and weighed tumors. Animals bearing ulcerated tumors or where tumor weight exceeded 10% of the animal's body weight were terminated. The weights of the bilateral tumors were averaged for each mouse and mean tumor weights for each treatment group±standard error of the mean were calculated. Statistical analysis was carried out by Mann-Whitney test using GraphPad Prism software (San Diego, Calif.).

[2] = system: CCD-986SK; assay: Cell proliferation assay; format: cell-based; settings: Homo sapiens; Primary fibroblast CCD-986SK; read-out: Formula 2 compound IC50 (inhibition of growth)
Procedure: (§1) Cell proliferation IC50s and MDR reversal EC50s were determined from 3-day dose-response curves carried out in triplicate in 96-well plates essentially as described by Monks et al. (J. Natl. Cancer Inst., 83:757-66, 1991). Cells were plated in standard growth medium at 2.5 or 5.0×10^4 per well (CCRF-CEM and CEM/VLB1000 respectively) or 5×10^3 per well (all other cell lines) in a final volume of 100 μl. After a 2 h incubation for non-adherent cells and overnight incubation for adherent cells, the initial cell density was determined by fluorescence readout of Alamar Blue metabolism. The compound of Formula 2, cytotoxic agents, or compound vehicles were added to duplicate plates and the incubation was continued for an additional 72 h. Final cell density was determined with Alamar Blue. In some experiments, a standard endpoint assay was used without analysis of initial cell density with Alamar Blue. Similar results were obtained with the two assays. EC50s were derived by nonlinear regression analysis assuming a sigmoidal dose-response using GraphPad Prism Software (San Diego, Calif.). Proliferation assays capable of measuring both cytostatic and cytotoxic responses were carried out as described herein with 15 non-transformed and transformed cell lines, including primary fibroblasts, non-transformed smooth muscle, leukemia, breast, colon, ovarian and uterine carcinoma cells (±P-gp expression). Although the compound of Formula 2 reversed P-gp-mediated MDR in the low nanomolar concentration range, the compound was non-cytotoxic by itself at doses up to 100 μM in all cell lines. […] IC50s for non-specific cytotoxicity were similar in matched cell lines plus and minus P-gp expression. […] If it were, some consistent degree of resistance would be expected in P-gp expressing cells.

[3] = system: SW480; assay: Cell proliferation assay; format: cell-based; settings: Homo sapiens; Colorectal carcinoma SW480, P-gp Pos; read-out: Formula 2 compound IC50 (inhibition of growth)
Procedure: as §1

[4] = system: MES-SA; assay: Cell proliferation assay; format: cell-based; settings: Homo sapiens; Uterine carcinoma MES-SA, P-gp Neg; read-out: Formula 2 compound IC50 (inhibition of growth)
Procedure: as §1

[5] = system: HT-29; assay: Cell proliferation assay; format: cell-based; settings: Homo sapiens; Colorectal carcinoma HT-29, P-gp Neg; read-out: Formula 2 compound IC50 (inhibition of growth)
Procedure: as §1

[6] = Cell proliferation assay; format: cell-based; settings: human, MDA/LCC6^MDR1 breast carcinoma cells (P-gp positive); Breast carcinoma MDA/LCC6^MDR1, P-gp Pos; read-out: Formula 2 compound IC50 (inhibition of growth)
Procedure: as §1

[7] = system: MDA/LCC6; assay: Cell proliferation assay; format: cell-based; settings: Homo sapiens, LCC-6; Breast carcinoma MDA/LCC6, P-gp Neg; read-out: Formula 2 compound IC50 (inhibition of growth)
Procedure: as §1

[8] = system: CEM/VLB1000; assay: Cell proliferation assay; format: cell-based; settings: Homo sapiens; Lymphoma CEM/VLB1000, P-gp Pos; read-out: Formula 2 compound IC50 (inhibition of growth)
Procedure: as §1

[9] = system: SKOV3; assay: Cell proliferation assay; format: cell-based; settings: Homo sapiens, SK-OV-3; Ovarian carcinoma SKOV3, P-gp Neg; read-out: Formula 2 compound IC50 (inhibition of growth)
Procedure: as §1

[10] = system: CEM; assay: Cell proliferation assay; format: cell-based; settings: Homo sapiens, CCRF-CEM; Lymphoma CEM, P-gp Neg; read-out: Formula 2 compound IC50 (inhibition of growth)
Procedure: as §1

[11] = Blood-brain barrier penetration of loperamide, mouse hot-plate test; format: in vivo, mice
Text: These increases were dose dependent with respect to loperamide.

[12] = system: SK/VLB1000; assay: Reversal of MDR in P-gp-expressing cell line; format: cell-based; settings: Homo sapiens, SK/VLB1000 ovarian
Procedure: as §1

[13] = system: MCF-7/ADR; assay: Reversal of MDR in P-gp-expressing cell line; format: cell-based; settings: Homo sapiens, NCI/ADR-RES, MCF-7/ADR breast, ± SD
Procedure: as §1

[14] = system: CEM/VLB1000; assay: Reversal of MDR in P-gp-expressing cell line; format: cell-based; settings: Homo sapiens, CEM/VLB1000 lymphoma, ± SD
Procedure: as §1

[15] = system: HCT-15; assay: Reversal of MDR in P-gp-expressing cell line; format: cell-based; settings: Homo sapiens; HCT-15 colorectal carcinoma; read-out: Formula 2 compound EC50, reversal of Paclitaxel resistance
Procedure: as §1

[16] = system: MES-SA/DX5; assay: Reversal of MDR in P-gp-expressing cell line; format: cell-based; settings: Homo sapiens, MES-SA/DX5 uterine, ± SD
Procedure: as §1

[17] = read-out: Formula 2 compound EC50, reversal of Paclitaxel resistance
[18] = read-out: Formula 2 compound EC50, reversal of Vinblastine resistance
[19] = read-out: Formula 2 compound EC50, reversal of Doxorubicin resistance

CCOC/C=C/c1ccc(-c2nc(-c3ccc(NC(C)C)cc3)c(-c3ccc(NC(C)C)cc3)[nH]2)cc1 [Formula 2 compound]
In vivo anti-tumor activity of paclitaxel [1]: did enhance | IC50 [2]: > 100 µM | IC50 [3]: > 100 µM | IC50 [4]: 51 µM | IC50 [5]: 12 µM | IC50 at 72 h [6]: > 100 µM | IC50 [7]: > 100 µM | IC50 [8]: 32 µM | IC50 [9]: 48 µM | IC50 [10]: 38 µM | Effect on hot-plate escape time ([11]; co-administration with loperamide, either 20 mg or 40 mg, dose dependent with respect to loperamide): significant increases | Mean time to escape the hot-plate ([11]; in the absence of loperamide): 20 s | EC50 [12, 17]: 33 nM | EC50 [12, 18]: 15 nM | EC50 ([12]; ± SD, read-out: Formula 2 compound EC50, reversal of Doxorubicin resistance): 25 ± 8 nM | EC50 [13, 19]: 38 ± 6 nM | EC50 [13, 17]: 31 ± 4 nM | EC50 [13, 18]: 20 ± 10 nM | EC50 [14, 19]: 90 ± 60 nM | EC50 [14, 18]: 70 ± 10 nM | EC50 [15]: 1.6 nM | EC50 [16, 19]: 24 ± 6 nM | EC50 [16, 17]: 27 ± 7 nM | EC50 [16, 18]: 34 ± 7 nM
